From ChEMBL document CHEMBL2010668 (Bioorg Med Chem Lett, 2012) come the findings set out here.

A short description of series [1]: Cytotoxicity against mouse Melan-a cells assessed as cell survival at 80 uM. As to conditions: read-out: Survival. It is filed as cell-based.
In another series the target is T1, Tyrosinase (Agaricus bisporus, UniProt O42713).
T1 sequence (O42713 whole entry): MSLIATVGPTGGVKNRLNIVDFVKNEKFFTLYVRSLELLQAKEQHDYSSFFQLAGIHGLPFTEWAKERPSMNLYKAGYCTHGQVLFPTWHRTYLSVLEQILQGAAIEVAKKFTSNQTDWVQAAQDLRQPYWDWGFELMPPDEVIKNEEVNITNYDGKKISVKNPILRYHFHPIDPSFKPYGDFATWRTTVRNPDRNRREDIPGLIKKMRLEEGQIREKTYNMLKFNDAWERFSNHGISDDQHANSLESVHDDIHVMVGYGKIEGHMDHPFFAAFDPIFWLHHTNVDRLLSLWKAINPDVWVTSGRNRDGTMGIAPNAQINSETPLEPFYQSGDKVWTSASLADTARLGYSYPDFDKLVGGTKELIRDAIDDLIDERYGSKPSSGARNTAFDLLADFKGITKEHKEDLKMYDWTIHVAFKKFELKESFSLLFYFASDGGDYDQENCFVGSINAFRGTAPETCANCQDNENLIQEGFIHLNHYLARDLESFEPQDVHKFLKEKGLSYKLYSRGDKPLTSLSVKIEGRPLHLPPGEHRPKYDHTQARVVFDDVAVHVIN
Briefly: Inhibition of mushroom tyrosinase.

Series [2] can be described thus: Cytotoxicity against mouse Melan-a cells at 46.64 uM. It is filed as cell-based.
The nature of a further series: cells. As to conditions: Mus musculus, Melan-a.
Series [3] is described as follows: Cytotoxicity against mouse Melan-a cells assessed as cell survival at 100 uM. It is filed as cell-based. As to conditions: read-out: Survival.
A short description of series [4]: Cytotoxicity against mouse Melan-a cells assessed as cell survival at 50 uM. It is filed as cell-based. To be noted: read-out: Survival.

SMILES strings stand for the structures. A value given as a limit tells only on which side of the number the result lay.

Description for cells: Depigmenting activity in mouse Melan-a cells assessed as melanin production

Broadly, the IC50 is the concentration at which inhibition is half-maximal. As for `O=C(/C=C/c1ccc2c(c1)OCO2)Oc1coc(CO)cc1=O`, the viability at 80 µM in series [1] worked out at 98.9%. Moreover, the 50% inhibitory concentration (IC50) was over 200 µM against Tyrosinase and 46.6 µM in “cells”. The Activity entry in series [2] is “Non-toxic”.
As to `O=C(/C=C/c1ccc2c(c1)OCO2)OCc1cc(=O)c(O)co1`, the results for the IC50 at Tyrosinase and in the series “cells” were 1.53 µM and over 100 µM, respectively. Moreover, the viability at 100 µM in series [3] was 97.1%.
In the same order, the values of `O=C(/C=C/c1ccc2c(c1)OCO2)OC(=O)/C=C/c1ccc2c(c1)OCO2` are over 100 µM, over 100 µM and 97.1%.
On to `O=C(/C=C/c1ccc2c(c1)OCO2)OCc1cc(=O)c(OCc2cc(=O)c(O)co2)co1`, for which the half-maximal inhibitory concentration (IC50) at Tyrosinase was over 100 µM; in “cells”, 23.5 µM. In addition, the viability at 50 µM in series [4] was determined as 95.9%.
